One series concerns the target T1, hY2 (Homo sapiens, UniProt P49146).
T1 construct: KAN-Ts endogenously expressing Y2 receptors were used; endogenous in cells; host or cells: KAN-Ts cells stably expressing chimeric G proteins
T1 sequence (P49146 1-381): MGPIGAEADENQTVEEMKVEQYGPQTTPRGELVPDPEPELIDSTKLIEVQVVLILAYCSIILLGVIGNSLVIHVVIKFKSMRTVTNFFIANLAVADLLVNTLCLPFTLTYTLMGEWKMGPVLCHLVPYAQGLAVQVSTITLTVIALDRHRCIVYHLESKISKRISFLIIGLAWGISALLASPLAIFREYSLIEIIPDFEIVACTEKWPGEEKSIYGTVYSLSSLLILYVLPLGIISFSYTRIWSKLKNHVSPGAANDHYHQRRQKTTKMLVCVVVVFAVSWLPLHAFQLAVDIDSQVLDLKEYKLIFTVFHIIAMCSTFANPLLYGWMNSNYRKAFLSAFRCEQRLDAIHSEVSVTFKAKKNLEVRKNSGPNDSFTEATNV
Kind of series: Ca2+ mobilization assay (FLIPR) in KAN-Ts cells. It counts as cell-based. Conditions: KANT-S cells, inhibition of PYY stimulated Ca2+ increase, read-out: hY2 pKB (converted). The procedure:
The assay was performed using the fluorimetric imaging plate reader (FLIPR) format as described in Dautzenberg, F. M., Biochemical Pharmacology 2005, 69, 1493.
KAN-Ts cells stably expressing chimeric G proteins were seeded at a density of 100,000 cells into poly-d-lysine coated 384-well blackwall, clear-bottom microtiter plates (Corning, N.Y.). One day later, the medium was removed and 50 μl loading medium DMEM high glucose, without serum, supplemented with 10 mM HEPES-acid, 0.1% BSA, 5 mM probenecid and 2 μM Fluo-3AM was added. Cells were loaded for 1 h at 37° C., washed twice with 50 μl assay buffer (5 mM HEPES-acid, 140 mM NaCl, 1 mM MgCl2, 5 mM KCl, 10 mM glucose) and then 30 μl assay buffer was added. Cells were further pre-incubated at room temperature before adding agonists or agonists plus antagonists in 20 μl assay buffer and then measured on a T-channel fluorometric imaging plate reader (FLIPR, Molecular Devices, Sunnyvale, Calif.).
Antagonistic potency values were converted to apparent pKB values using a modified Cheng-Prusoff correction. Apparent pKB=−log IC50/1+[conc agonist/EC50]. Data below are expressed as mean±S.E.M.
The in vitro antagonistic properties of the compound of formula (A) were confirmed using Ca^2+ measurement.

A further series has as its target T2, human Y2 receptor (Homo sapiens, UniProt P49146).
T2 construct: KAN-Ts endogenously expressing Y2 receptors were used; endogenous in cells; host or cells: KAN-Ts cells
T2 sequence (P49146 1-381): T1 sequence (P49146 1-381)
Briefly: Neuropeptide Y2 radioligand binding assay, [125I]PYY, KAN-Ts cells. Conditions: KANT-S cells, mean ± S.E.M., read-out: hY2 pKi (converted). The procedure: (§1) Radioligand binding assays for the human and rat/mouse Y2 receptor were performed as described in Bonaventure, P., D. Nepomuceno, C. Mazur, B. Lord, D. A. Rudolph, J. A. Jablonowski, N. I. Carruthers and T. W. Lovenberg, J Pharmacol Exp Ther. 2004, 308, 1130.
(§2) KAN-Ts endogenously expressing Y2 receptors were used, for the rat and mouse Y2 receptor, membranes from rat or mouse hippocampus were prepared. Membranes were incubated with [^125I]PYY (80 pM) in the presence or absence of test compound for 1 h at rt. The reaction was stopped by filtration through GF/C filter plates pre-soaked in 0.3% polyethylenimine and subsequently washed with Tris-HCl, 50 mM, 5 mM EDTA buffer. Plates were dried for 1 h in a 55° C. oven, scintillation fluid was added and the radioactivity was counted in a Packard TopCount. Specific binding to the NPY receptor subtypes was determined by radioactivity that was bound in the presence of 1 μM NPY.
(§3) Apparent Ki values were calculated as K=IC50/(1+C/KD), where C is concentration of the radioligand and pKi=−log Ki. Data presented below are expressed as mean±S.E.M.

Series [1] in a line: Pharmacokinetic study in rats. The format is in vivo. The note with it: rat, whole blood; for Vd: iv. Here is the method:
The pharmacokinetic, blood-brain barrier penetration and ex vivo receptor occupancy studies were performed as described in Bonaventure, P., D. Nepomuceno, C. Mazur, B. Lord, D. A. Rudolph, J. A. Jablonowski, N. I. Carruthers and T. W. Lovenberg, J Pharmacol Exp Ther. 2004, 308, 1130.
The compound of formula (A) was formulated in 20% hydroxypropylbetacyclodextrine. Subcutaneous (SC), oral (PO) or intravenous (IV) dosing was followed by blood sampling via cardiac puncture over a time course. Blood samples consisted of 250 μl samples taken from the heart using a 23-gauge needle into 1.5 ml micro-centrifuge tubes. Brains were removed from the animals and bisected down the midsagittal plane. One hemisphere was frozen on dry ice for ex vivo receptor binding autoradiography and the other was homogenized for LC/MS-MS analysis.
All blood samples were deproteinized by 1:4 dilution of the sample with acetonitrile with vigorous mixing. These samples were incubated for 5 minutes, and then centrifuged at 14,000 rpm in a micro-centrifuge for 4 minutes. The supernatant was recovered into auto-sampler vials and diluted 1:1 with sterile water. Samples were analyzed by LC-MS/MS. A Vydac SP C18 2.1×50 mm analytical column was used for separation.
Oral, subcutaneous and intravenous pharmacokinetic parameters of the compound of formula (A) were determined in rats and are listed in Table 2 below.

The target in a further series is T3, mouse Y2 receptor (Mus musculus, UniProt P97295).
T3 construct: membranes from rat or mouse hippocampus were prepared; from tissue; host or cells: mouse hippocampus membranes
T3 sequence (P97295 1-381): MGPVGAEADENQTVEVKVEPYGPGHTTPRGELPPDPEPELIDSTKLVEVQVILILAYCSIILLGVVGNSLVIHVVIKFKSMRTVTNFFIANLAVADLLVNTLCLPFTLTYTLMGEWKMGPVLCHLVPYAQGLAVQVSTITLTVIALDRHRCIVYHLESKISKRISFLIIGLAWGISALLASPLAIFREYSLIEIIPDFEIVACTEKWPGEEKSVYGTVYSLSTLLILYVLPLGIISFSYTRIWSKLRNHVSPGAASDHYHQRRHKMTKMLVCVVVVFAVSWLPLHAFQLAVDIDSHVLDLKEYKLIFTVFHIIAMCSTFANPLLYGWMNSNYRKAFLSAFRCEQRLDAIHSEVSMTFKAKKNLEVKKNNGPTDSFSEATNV
Briefly: Neuropeptide Y2 radioligand binding assay, [125I]PYY, mouse hippocampus membranes. The note with it: read-out: mY2 pKi (converted). Here is the method: as §1, §2, §3

The structures appear in SMILES notation. Like-named read-outs stand apart in the source and are kept apart here.

This is an account of results in patent US8338426B2, “Piperazinyl derivatives useful as modulators of the neuropeptide Y2 receptor” (Janssen Pharmaceutica NV, priority 2007, dated 2012).

For the compound `CCN(CC)C(=O)C(c1ccccc1)N1CCN(c2ccc(NC(=O)c3ccccc3-c3cccnc3)cc2F)CC1` (racemic) [Cmpd (A), N-{4-[4-(Diethylcarbamoyl-phenyl-methyl)-piperazin-1-yl]-3-fluoro-phenyl}-2-pyridin-3-yl-benzamide], the Kb at hY2 is 2.69 nM. The Ki at human Y2 receptor is 5.5 nM. For the same compound, the Vd in series [1] (read-out: VSS) came out at 0.73 L/kg. Besides, the Vd in series [1] (read-out: Vz) turned out to be 1.07 L/kg. Also, in series [1] (IV), the AUC(0-inf) amounted to 0.708 µM·h, the C0 was found to be 5.33 µM, the clearance amounted to 42.3 mL/min/kg and the half-life was 17.4 min. Further, in series [1] (PO 10 mg/kg), the AUC(0-inf) is 0.444 µM·h, the Cmax was 0.414 µM, the Tmax was determined as 30 min and the bioavailability was determined as 6%. In addition, in series [1] (PO 10 mg/kg), the half-life was 31.8 min. In series [1] (SC 10 mg/kg), the AUC(0-inf) is 7.91 µM·h, the Cmax worked out at 4.35 µM, the Tmax was 30 min and the bioavailability was > 100%. In series [1] (SC 10 mg/kg), this compound had a half-life of 50 min. The Ki at mouse Y2 receptor is 4.47 nM.
